Data set [1] in a line: Solubility in water and buffers. The following applies: buffer system None (unbuffered water). Type of data set: physicochemical. The source says:
By “soluble” or “solubility” is meant the property of a compound to dissolve in water, buffer, or other liquid, which may be measured in terms of mg·mL^−1. […] Examples of pharmaceutically acceptable buffers include those provided in Remington: The Science and Practice of Pharmacy, 22 ed., 2013, Pharmaceutical Press, London (Allen, L. V., Jr., ed.). […] Methods for evaluating the solubility of a compound include, for example, a 96-well plate-based assay in which aqueous suspensions of the compound are vacuum-filtered and the concentration of compound is measured by UV spectrophotometry (Roy et al (2001) Drug Dev Ind Pharm 27(1):107-109).

Data set [2] in a line: Stability of salt forms under accelerated conditions of heat and humidity. Type of data set: physicochemical. As for the experimental part:
The stability of different salt forms of Compound A was assayed under accelerated conditions of heat and humidity for 7 and for 14 days. All salts were […] up to 40° C. and 75% relative humidity (RH), but appeared to degrade under severe temperature and humidity conditions of 80° C. with or without 80% relative humidity. (Table 3)

In data set [3] the test system is cells. Kind of data set: AP1903 amount needed in vitro for effective signaling of cells. Type of data set: cell-based. The following applies: converted with 1600 Da. As for the experimental part: The fixed dose of AP1903 for injection used, for example, may be 0.4 mg/kg intravenously infused over 2 hours. The amount of AP1903 needed in vitro for effective signaling of cells is 10-100 nM (1600 Da MVV). This equates to 16-160 μg/L or ˜[…] (1.6-160 μg/kg). Doses up to 1 mg/kg were well-tolerated in the Phase 1 study of AP1903 discussed above. Therefore, 0.4 mg/kg may be a safe and effective dose of AP1903 for this Phase I study in combination with the therapeutic cells.

For data set [4] the following is noted: cited from earlier work.
Data set [5] relates to cells. The following applies: cited from earlier work.
The conditions of data set [6]: cited from earlier work. The source holds these as a separate data set.

Where two headings read alike, the source gives them in different places.

Regarding `CC[C@H](C(=O)N1CCCC[C@H]1C(=O)O[C@H](CCc1ccc(OC)c(OC)c1)c1cccc(OCCN(C)CCN(C)CCOc2cccc([C@@H](CCc3ccc(OC)c(OC)c3)OC(=O)[C@@H]3CCCCN3C(=O)[C@@H](CC)c3cc(OC)c(OC)c(OC)c3)c2)c1)c1cc(OC)c(OC)c(OC)c1.O=S(=O)(O)O` [Sulphate], the “Inherent pH in parenthesis” value in data set [1] is 3.06. Further, the “Assay (%)” value was found to be 96.2% in data set [2] (25° C./60% RH, 7 D); 95.0% in data set [2] (25° C./60% RH, 14 D); 95.9% in data set [2] (40° C./75% RH, 7 D); 95.6% in data set [2] (40° C./75% RH, 14 D); 95.3% in data set [2] (80° C., 7 D); 94.6% in data set [2] (80° C., 14 D). In addition, the “Assay (%)” value amounted to 88.2% in data set [2] (80° C./80% RH, 7 D) and 85.4% in data set [2] (80° C./80% RH, 14 D).
Regarding `CC[C@H](C(=O)N1CCCC[C@H]1C(=O)O[C@H](CCc1ccc(OC)c(OC)c1)c1cccc(OCCN(C)CCN(C)CCOc2cccc([C@@H](CCc3ccc(OC)c(OC)c3)OC(=O)[C@@H]3CCCCN3C(=O)[C@@H](CC)c3cc(OC)c(OC)c(OC)c3)c2)c1)c1cc(OC)c(OC)c(OC)c1.Cl` [Compound A.2], in data set [1], the “Inherent pH in parenthesis” value came to 2.9. The “Assay (%)” value was determined as 97.3% in data set [2] (25° C./60% RH, 7 D); 96.7% in data set [2] (25° C./60% RH, 14 D); 97.2% in data set [2] (40° C./75% RH, 7 D); 96.9% in data set [2] (40° C./75% RH, 14 D); 96.3% in data set [2] (80° C., 7 D); 94.8% in data set [2] (80° C., 14 D). Further, the “Assay (%)” value in data set [2] (80° C./80% RH, 7 D) was determined as 95.6%; in data set [2] (80° C./80% RH, 14 D), 94.4%.
With `CC[C@H](C(=O)N1CCCC[C@H]1C(=O)O[C@H](CCc1ccc(OC)c(OC)c1)c1cccc(OCC(=O)NCCNC(=O)COc2cccc([C@@H](CCc3ccc(OC)c(OC)c3)OC(=O)[C@@H]3CCCCN3C(=O)[C@@H](CC)c3cc(OC)c(OC)c(OC)c3)c2)c1)c1cc(OC)c(OC)c(OC)c1` [rimiducid], the “amount needed in vitro for effective signaling of cells, converted” value in the data set with cells [3] fell in the range of 16 to 160 µg/L. In addition, the solubility in water entry in data set [4] is “approximately 700 pM”. Also, the “amount needed in vitro for effective signaling of cells” value with cells [5] was 10 to 100 nM. Further, in data set [6] (0.01-1.0 mg/kg IV over 2 hours), the “plasma levels versus dose” value was “directly proportional to dose”. Also, the entries for the “plasma level as % of maximal concentration” value in data set [6] (0.5 hours post-dose), in data set [6] (2 hours post-dose) and in data set [6] (10 hours post-dose) were “approximately 18%”, roughly 7% and roughly 1%, respectively. Moreover, the well-tolerated doses result in data set [6] (Phase 1 study) was “up to 1 mg/kg”. Further, the “mean Cmax” value in data set [6] (healthy volunteers, single doses 0.01-1.0 mg/kg infused IV over 2 hours) is 10 to 1275 ng/mL.
`CC[C@H](C(=O)N1CCCC[C@H]1C(=O)O[C@H](CCc1ccc(OC)c(OC)c1)c1cccc(OCCN(C)CCN(C)CCOc2cccc([C@@H](CCc3ccc(OC)c(OC)c3)OC(=O)[C@@H]3CCCCN3C(=O)[C@@H](CC)c3cc(OC)c(OC)c(OC)c3)c2)c1)c1cc(OC)c(OC)c(OC)c1.O=C(O)/C=C/C(=O)O` [Fumarate]: the “Inherent pH in parenthesis” value in data set [1] was determined as 3.4. Also, the “Assay (%)” value in data set [2] (25° C./60% RH, 7 D) was 97.5%; in data set [2] (25° C./60% RH, 14 D), 97.1%; in data set [2] (40° C./75% RH, 7 D), 97.2%; in data set [2] (40° C./75% RH, 14 D), 96.8%; in data set [2] (80° C., 7 D), 96.6%; in data set [2] (80° C., 14 D), 95.8%. Besides, the “Assay (%)” value came out at 87.5% in data set [2] (80° C./80% RH, 7 D) and 81.2% in data set [2] (80° C./80% RH, 14 D).
In the case of `CC[C@H](C(=O)N1CCCC[C@H]1C(=O)O[C@H](CCc1ccc(OC)c(OC)c1)c1cccc(OCCN(C)CCN(C)CCOc2cccc([C@@H](CCc3ccc(OC)c(OC)c3)OC(=O)[C@@H]3CCCCN3C(=O)[C@@H](CC)c3cc(OC)c(OC)c(OC)c3)c2)c1)c1cc(OC)c(OC)c(OC)c1.O=S(=O)(O)c1ccccc1`, in data set [1], the “Inherent pH in parenthesis” value worked out at 4.3. Moreover, the “Assay (%)” value in data set [2] (25° C./60% RH, 7 D) amounted to 92.2%; in data set [2] (25° C./60% RH, 14 D), 91.7%; in data set [2] (40° C./75% RH, 7 D) it was 92.2%; in data set [2] (40° C./75% RH, 14 D), 92.2%; in data set [2] (80° C., 7 D) it was 91.5%; in data set [2] (80° C., 14 D), 90.6%. Also, the “Assay (%)” value was found to be 91.2% in data set [2] (80° C./80% RH, 7 D) and 90. % in data set [2] (80° C./80% RH, 14 D).
On to `CC[C@H](C(=O)N1CCCC[C@H]1C(=O)O[C@H](CCc1ccc(OC)c(OC)c1)c1cccc(OCCN(C)CCN(C)CCOc2cccc([C@@H](CCc3ccc(OC)c(OC)c3)OC(=O)[C@@H]3CCCCN3C(=O)[C@@H](CC)c3cc(OC)c(OC)c(OC)c3)c2)c1)c1cc(OC)c(OC)c(OC)c1.O=P(O)(O)O` [Compound A.1], for which, in data set [1], the “Inherent pH in parenthesis” value is recorded as 3.9. For the same molecule, the “Assay (%)” value in data set [2] (25° C./60% RH, 7 D) was 96.2%; in data set [2] (25° C./60% RH, 14 D), 95.9%; in data set [2] (40° C./75% RH, 7 D), 95.6%; in data set [2] (40° C./75% RH, 14 D), 95.9%; in data set [2] (80° C., 7 D), 94.9%; in data set [2] (80° C., 14 D) it was 93.3%. Besides, the “Assay (%)” value worked out at 85.2% in data set [2] (80° C./80% RH, 7 D) and 77.7% in data set [2] (80° C./80% RH, 14 D).

The record behind these values is US20200308144A1, “Multimeric piperidine derivatives” (Bellicum Pharmaceuticals, Inc., priority 2017, published 2020).
